Values of other authors as cited in US9393184B2, “Oxychlorine oral rinse composition having enhanced oral-tissue compatibility for the destruction of malodorants, their putrefactive microbial sources and gum-disease pathogens and a method for the preparation thereof” (ProFresh Properties Inc., priority 2013, dated 2016).

O=C(O)O [carbonic acid]
pKa: 6.1
